Here are results for 1 substance from patent publication US6221847A, “Composition and method for treating bacterial infection” (Clemson University, priority 1999, dated 2001).

Common to all, as to assay type: cell-based
The test system of assay [1] is Propionibacterium acnes ATCC 11827. Briefly: Spot on lawn method (Example IV), nisin. To be noted: 4,000 International Units per milliliter. As for the experimental part:
(§1) Propionibacterium acnes, Propionibacterium granulosum, or other cutaneous propionibacteria to be examined for sensitivity to the bacteriocin are grown in actinomyces broth at 37° C. for 2 days under anaerobic conditions. Cultures (15 μL) being examined for sensitivity are added to soft actinomyces agar (5 ml) and the mixture is applied uniformly over each actinomyces agar plate. Preparations concentrated so as to contain 6,400 Activity Units/ml of bacteriocins are spotted (25 μl spots) onto the surface of the prepared plates. These plates are held at 37° C. for 2 days under anaerobic conditions to permit growth of the cutaneous culture and examined for zones of inhibition (lack of growth) where the bacteriocin was applied. Zones are evidence of bacteriocin inhibition.
(§2) Specifically, a solution of nisin containing 4,000 International Units per milliliter was tested for activity against Propionibacterium acnes ATCC 6919, Propionibacterium acnes ATCC 11827, Propionibacterium avidum ATCC 25577 and Propionibacterium granulosum ATCC 25564 according to the method described in Example IV above. It was observed that nisin inhibited all of the cutaneous cultures.

Assay [2] concerns Propionibacterium acnes ATCC 6919. Briefly: Spot on lawn method (Example IV), nisin. The note with it: 4,000 International Units per milliliter. As for the experimental part: as §1, §2
The subject of assay [3] is Propionibacterium avidum ATCC 25577. Put plainly: Spot on lawn method (Example IV), nisin. The note with it: 4,000 International Units per milliliter. As for the experimental part: as §1, §2
Assay [4] relates to Propionibacterium granulosum ATCC 25564. Briefly: Spot on lawn method (Example IV), nisin. The note with it: 4,000 International Units per milliliter. The protocol: as §1, §2
Assay [5] relates to Propionibacterium acnes ATCC 11827. Put plainly: Broth culture growth with nisin. To be noted: 400 International Units per milliliter, anaerobic, 37° C., 24 hours. As for the experimental part: (§3) Nisin at a final concentration of 400 International Units per milliliter was also added to broth cultures of each of the above bacteria strains. The broth cultures were incubated anaerobically at 37° C. for 24 hours.

Assay [6] relates to Propionibacterium acnes ATCC 6919. Briefly: Broth culture growth with nisin. The note with it: 400 International Units per milliliter, anaerobic, 37° C., 24 hours. The protocol: as §3
Assay [7] relates to Propionibacterium avidum ATCC 25577. Briefly: Broth culture growth with nisin. To be noted: 400 International Units per milliliter, anaerobic, 37° C., 24 hours. As for the experimental part: as §3
Assay [8] deals with Propionibacterium granulosum ATCC 25564. Briefly: Broth culture growth with nisin. To be noted: 400 International Units per milliliter, anaerobic, 37° C., 24 hours. As for the experimental part:
as §3

As to nisin, the “inhibition (zones)” value in assay [1], in assay [2], in assay [3] and in assay [4] was “inhibited” throughout. The “growth of broth culture” value in assay [5], in assay [6], in assay [7] and in assay [8] was “markedly reduced the growth” throughout.
